This note sets out measurements from patent publication US5539119A, “Indole derivatives” (priority 1990, dated 1996).

Where two headings read alike, the source gives them in different places. Some results are limits rather than exact numbers.

Assay [1] deals with T1, δ opioid receptor (Cavia porcellus, UniProt A0A286XTF2).
T1 construct: the homogenate of the brain of a guinea pig; from tissue; host or cells: guinea pig brain homogenate
Kind of assay: Bonding (binding) assay, guinea pig brain homogenate, DPDPE (hot) / DADLE (cold). How it is done: (§1) In the test for bonding, the homogenate of the brain of a guinea pig was diluted with Tris buffer in a ratio calculated to give to the produced solution a protein content of 0.7 mg per prot/tube was used as incorporated in the reaction solution. With regard to ligands for binding assay, 3H-DAGO (μ), DPDPE (δ), and EKC (κ) were used for hot samples and naloxone (μ), DADLE (δ), and naloxone (κ) for cold samples.

In assay [2] the test system is δ opioid receptor. The assay is described as above. As to conditions: μ/δ. The procedure: as §1
For assay [3], the system named is Guinea Pig Ileal Longitudinal Muscle. Kind of assay: GPI, shift of the compound's effect by naloxone or nor-BNI. Further details: GPI nor-BN1 Ke: unit not given here. How it is done:
(§2) The test of the compounds of this invention for agonist and antagonist activities was carried out in according to the method proposed by Takemori et al. (Takemori, A, E. et al.: Eur. J. Pharmacal., 1982, 85, 163) using Guinea Pig Ileal Longitudinal Muscle Mouse Vas Deferens (MVD).

In another assay the target is T2, κ opioid receptor (Cavia porcellus, UniProt P41144).
T2 construct: the homogenate of the brain of a guinea pig; from tissue; host or cells: guinea pig brain homogenate
T2 sequence (P41144 whole entry): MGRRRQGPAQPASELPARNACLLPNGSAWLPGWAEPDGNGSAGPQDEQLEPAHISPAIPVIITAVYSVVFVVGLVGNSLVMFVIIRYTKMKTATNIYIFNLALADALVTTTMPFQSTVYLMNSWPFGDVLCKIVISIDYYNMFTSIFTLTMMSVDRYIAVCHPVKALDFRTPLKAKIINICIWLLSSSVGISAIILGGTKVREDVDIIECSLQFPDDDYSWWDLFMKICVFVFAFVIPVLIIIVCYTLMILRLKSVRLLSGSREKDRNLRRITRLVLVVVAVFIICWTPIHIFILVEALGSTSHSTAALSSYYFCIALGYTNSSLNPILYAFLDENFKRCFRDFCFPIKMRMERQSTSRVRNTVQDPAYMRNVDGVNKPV
Kind of assay: Bonding (binding) assay, guinea pig brain homogenate, EKC (hot) / naloxone (cold). How it is done: as §1

Assay [4] relates to Guinea Pig Ileal Longitudinal Muscle. Kind of assay: Agonist activity in Guinea Pig Ileal Longitudinal Muscle (GPI). Conditions: for IC50: guinea pig ileum. The procedure: as §2
The target in the next assay is T3, μ opioid receptor (Cavia porcellus, UniProt A0ACM8Q262).
T3 construct: 3H-DAGO (DAMGO) radioligand, cold naloxone
T3 sequence (A0ACM8Q262 1-400): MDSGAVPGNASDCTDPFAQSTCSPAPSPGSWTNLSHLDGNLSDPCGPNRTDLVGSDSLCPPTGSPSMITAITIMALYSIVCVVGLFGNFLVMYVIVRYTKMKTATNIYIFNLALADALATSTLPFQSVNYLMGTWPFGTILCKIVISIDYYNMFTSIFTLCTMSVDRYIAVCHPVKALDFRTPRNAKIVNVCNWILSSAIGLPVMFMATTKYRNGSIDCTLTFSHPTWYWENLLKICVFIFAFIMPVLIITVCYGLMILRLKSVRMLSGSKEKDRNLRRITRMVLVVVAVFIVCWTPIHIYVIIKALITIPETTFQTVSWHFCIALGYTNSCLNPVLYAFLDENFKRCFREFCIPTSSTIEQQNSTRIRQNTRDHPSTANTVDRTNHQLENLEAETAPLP
The experiment in a line: Bonding (binding) assay, guinea pig brain homogenate, 3H-DAGO (hot) / naloxone (cold). Conditions: for Ki: guinea pig brain homogenate; for Ki ratio κ/μ: selectivity ratio. The procedure:
as §1

In a further assay the target is T4, δ-receptor (Mus musculus, UniProt P32300).
T4 construct: from tissue; host or cells: mouse vas deferens
T4 sequence (P32300 whole entry): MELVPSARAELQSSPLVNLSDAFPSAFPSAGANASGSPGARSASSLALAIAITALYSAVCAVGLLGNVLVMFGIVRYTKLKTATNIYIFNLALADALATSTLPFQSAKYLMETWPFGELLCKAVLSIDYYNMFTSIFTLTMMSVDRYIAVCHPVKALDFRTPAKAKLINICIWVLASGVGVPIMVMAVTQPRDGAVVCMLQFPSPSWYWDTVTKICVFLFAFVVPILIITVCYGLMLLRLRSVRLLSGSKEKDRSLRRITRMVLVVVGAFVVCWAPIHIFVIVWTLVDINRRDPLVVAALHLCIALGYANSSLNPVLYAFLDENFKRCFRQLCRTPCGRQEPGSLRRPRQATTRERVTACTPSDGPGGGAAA
Kind of assay: Antagonism to DPDPE in Mouse Vas Deferens (MVD).

For another assay, the system named is Mouse Vas Deferens (MVD). The experiment in a line: Agonist activity in Mouse Vas Deferens (MVD). As to conditions: read-out: MVD IC50. How it is done: as §2
For another assay, the system named is mouse T cells. The experiment in a line: Inhibiting proliferation of mouse T cells by Con-A stimulation ([3H]thymidine uptake, spleen cells). Conditions: for IC50: ConA-stimulated mouse T cells. In kind it is cell-based. How it is done: Now, the immunosuppressive activity of the compound 19 which is representative of the compounds of the present invention will be shown. Activity in inhibiting proliferation of mouse T cells by Con-A stimulation
A monocellular suspension was prepared by sterilely removing the spleen from a mouse and passing the spleen through a mesh. This suspension was adjusted to a concentration of 5×10^6 cells/ml and dispensed by the unit of 100 μl in all the individual wells of a 96-well plate. […] Eight hours before completion of the incubation, [^3 H]thymidine was added to the contents of the wells in a fixed ratio of 2 μCi/10 μl/well. Eight hours after this addition, the cells in the wells were collected on filter papers with the aid of a cell harvester. The cells on the filter papers were dried, then combined with a toluene type scintillator, and counted for the radioactivity of the [^3 H] thymidine occluded in the cells by means of a scintillation counter.
The ratio of suppression of T cell proliferation was calculated in accordance with the following formula:
Rate of suppression=(Radioactivity in the absence of compound-Radioactivityafter addition of compound)/(Radioactivity in the absence of compound-Radioactivity in the absence of ConA)

Setting [5] is: guinea pig brain homogenate, read-out: Bonding assay Ki value δ.

T1 sequence (A0A286XTF2 1-366): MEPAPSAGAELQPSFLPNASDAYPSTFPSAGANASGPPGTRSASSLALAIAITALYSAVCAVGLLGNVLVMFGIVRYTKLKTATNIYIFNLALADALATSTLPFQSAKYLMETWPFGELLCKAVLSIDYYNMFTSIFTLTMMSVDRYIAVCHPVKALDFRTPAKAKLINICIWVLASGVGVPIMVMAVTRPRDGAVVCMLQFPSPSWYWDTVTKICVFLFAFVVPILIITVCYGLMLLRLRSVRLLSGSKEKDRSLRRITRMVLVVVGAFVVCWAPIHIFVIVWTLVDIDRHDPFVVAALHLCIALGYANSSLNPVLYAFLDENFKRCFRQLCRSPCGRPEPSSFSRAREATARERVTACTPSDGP

As usually defined, the Ki is a dissociation constant, usually derived from enzyme kinetics or from competition with a known ligand. For orientation: IC50 means the concentration at which inhibition is half-maximal. As usually defined, the Kb is the equilibrium dissociation constant of an antagonist, usually derived from a functional assay. For `CN1CC[C@]2(c3cccc(O)c3)Cc3[nH]c4ccccc4c3C[C@H]2C1` (relative stereo) [Compound 2, 2-Methyl-4aα-(3-hydroxyphenyl)-1,2,3,4,4a,5,11,11aβ-octahydro-6H-indolo[2,3-g]isoquinoline], the Ki on δ opioid receptor [1] (setting [5]) came out at 193 nM. In addition, the “Ki ratio μ/δ” value in the assay with δ opioid receptor [2] is given as above 30.9. In addition, the “Ki ratio μ/δ” value in the assay with δ opioid receptor [2] (selectivity ratio) was 8.55. In addition, in assay [3], the “GPI naloxone DR” value was 1.12, the “GPI nor-BN1 DR” value was found to be 1.25, the “GPI nor-BN1 Ke” value is 301 and the “GPI nor-BN1 pA2” value was determined as 6.65. The Ki at κ opioid receptor is above 5970 nM. This compound also yielded an IC50 in [4] of 65100 nM. At μ opioid receptor, affinity was put at a Ki of 1650 nM and the “Ki ratio κ/μ” value is on record as above 3.62. On δ-receptor (at 100 nM), the Kb is 138 nM and the “MVD Antagonism to DPDPE at 100 nM, DR” value amounted to 8.14. The concentration for half-maximal inhibition (IC50) with Mouse Vas Deferens (MVD) was found to be 68600 nM.

For the compound `Cc1ccc2[nH]c3c(c2c1)C[C@H]1CN(C)CC[C@]1(c1cccc(O)c1)C3` (relative stereo) [Compound 4, 2-Methyl-4aα-(3-hydroxyphenyl)-9-methyl-1,2,3,4,4a,5,11,11aβ-octahydro-6H-indolo[2,3-q]isoquinoline], the Ki on δ opioid receptor [1] (setting [5]) is 1240 nM; at κ opioid receptor, above 11600 nM; on μ opioid receptor, 6420 nM. Besides, the entries for the “Ki ratio μ/δ” value with δ opioid receptor [2] and with δ opioid receptor [2] (selectivity ratio) were above 9.35 and 5.18, respectively. The “GPI naloxone DR” value in [3] was found to be 0.62. In assay [3], the “GPI nor-BN1 DR” value is given as 1.17. For the same compound, the values for the IC50 (in [4]; with Mouse Vas Deferens (MVD)) were 28000 nM and 46100 nM, respectively. Moreover, the “Ki ratio κ/μ” value on μ opioid receptor is on record as above 1.81. The Kb on δ-receptor (at 100 nM) was 427 nM. The “MVD Antagonism to DPDPE at 100 nM, DR” value on δ-receptor (at 100 nM) came to 3.37.

For `CN1CC[C@]2(c3cccc(O)c3)Cc3[nH]c4ccc(Cl)cc4c3C[C@H]2C1` (relative stereo) [Compound 6, 2-Methyl-4aα-(3-hydroxyphenyl)-9-chloro-1,2,3,4,4a,5,11,11aβ-octahydro-6H-indolo[2,3-q]isoquinoline], on δ opioid receptor [1] (setting [5]), the Ki was 1100 nM. For the same compound, the “Ki ratio μ/δ” value with δ opioid receptor [2] is recorded as above 24.9. Further, the “Ki ratio μ/δ” value in the assay on δ opioid receptor [2] (selectivity ratio) is reported as above 6.45. In addition, in [3], the “GPI naloxone DR” value amounted to 0.86, the “GPI nor-BN1 DR” value is on record as 1.23, the “GPI nor-BN1 Ke” value is recorded as 77.0 and the “GPI nor-BN1 pA2” value is reported as 7.16. The same compound gave a Ki on κ opioid receptor above 27400 nM. The compound also showed a half-inhibitory concentration (IC50) in [4] of 7900 nM. Moreover, at μ opioid receptor, the Ki was above 7090 nM and the “Ki ratio κ/μ” value was above 3.86. At δ-receptor (at 100 nM), the antagonist equilibrium constant (Kb) was 240 nM and the “MVD Antagonism to DPDPE at 100 nM, DR” value is given as 5.16. Besides, the IC50 in the assay on Mouse Vas Deferens (MVD) is 23600 nM.

`CN1CC[C@]2(c3cccc(O)c3)Cc3[nH]c4c(F)cccc4c3C[C@H]2C1` (relative stereo) [Compound 8, 2-Methyl-4aα-(3-hydroxyphenyl)-7-fluoro-1,2,3,4,4a,5,11,11aβ-octahydro-6H-indolo[2,3-g]isoquinoline]: the Ki on δ opioid receptor [1] was 59 nM; at κ opioid receptor, above 6750 nM; at μ opioid receptor it was 4590 nM. In addition, the “Ki ratio μ/δ” value in the assay with δ opioid receptor [2] is listed as above 114; in the assay on δ opioid receptor [2] (selectivity ratio), 77.8. Moreover, the “GPI naloxone DR” value in assay [3] worked out at 0.80. The “GPI nor-BN1 DR” value in assay [3] amounted to 1.04. Besides, the IC50 in assay [4] is 23000 nM; with Mouse Vas Deferens (MVD), 25900 nM. In addition, the “Ki ratio κ/μ” value at μ opioid receptor is above 1.47. This compound had a Kb on δ-receptor (MVD Antagonism to DPDPE at 100 nM, pA2, at 100 nM) of 70.8 nM. Besides, at δ-receptor (at 100 nM), the “MVD Antagonism to DPDPE at 100 nM, DR” value stood at 15.0.

For `CN1CC[C@]2(c3cccc(O)c3)Cc3c(c4ccccc4n3C)C[C@H]2C1` (relative stereo) [Compound 12, 2-Methyl-4aα-(3-hydroxyphenyl)-1,2,3,4,4a,5,11,11aβ-octahydro-6-methyl-indolo[2,3-g]isoquinoline], the Ki is 120 nM on δ opioid receptor [1] (setting [5]), 380 nM on κ opioid receptor and 1230 nM on μ opioid receptor. Also, the “Ki ratio μ/δ” value worked out at 3.17 with δ opioid receptor [2] and 10.3 with δ opioid receptor [2] (selectivity ratio). Besides, the “GPI naloxone DR” value in assay [3] stood at 0.61. Besides, in assay [3], the “GPI nor-BN1 DR” value was determined as 0.70. Also, the IC50 was 38700 nM in assay [4] and 25000 nM with Mouse Vas Deferens (MVD). Further, the “Ki ratio κ/μ” value on μ opioid receptor was 0.31. In addition, the Kb on δ-receptor (at 100 nM) was 138 nM. Also, the “MVD Antagonism to DPDPE at 100 nM, DR” value at δ-receptor (at 100 nM) was 8.27.

For the compound `Oc1cccc([C@]23CCN(CC4CC4)C[C@@H]2Cc2c([nH]c4ccccc24)C3)c1` (relative stereo) [Compound 19, 2-Cyclopropylmethyl-4aα-(3-hydroxyphenyl)-1,2,3,4,4a,5,11,11β-octahydro-6H-indolo[2,3-g]isoquinoline], the Ki was 3.5 nM at δ opioid receptor [1], 951 nM at κ opioid receptor and 716 nM at μ opioid receptor. Moreover, the “GPI naloxone DR” value in [3] is 0.93. Also, the “GPI nor-BN1 DR” value in assay [3] worked out at 0.95. Further, in assay [4], the “effect on contraction of guinea pig ileum, in words” value is given as “avoids affecting the inhibition of contraction of the ileum of a guinea pig”. Moreover, the IC50 in assay [4] turned out to be 34600 nM; in the assay on mouse T cells (Mus musculus, T-cell, read-out: IC50, activity in inhibiting T cell hyperplasia (Table 3)), 2.7 µg/mL; with mouse T cells (Mus musculus, T-cell, read-out: IC50 value, immunosuppression (text to Table 2)), 3 µg/mL; in the assay on Mouse Vas Deferens (MVD) it was 28900 nM. Besides, the “activity in immunosuppression / inhibiting T cell proliferation, in words” value in the assay on mouse T cells is reported as “clearly strong activity in immunosuppression”. The inhibition at 0.1 µg/mL with mouse T cells (Mus musculus, T-cell, 48 h, 0.1 μg/ml, n = 3, read-out: Ratio of suppression of T cell proliferation) stood at 6%. Besides, the inhibition at 0.5 µg/mL in the assay on mouse T cells (Mus musculus, T-cell, 48 h, 0.5 μg/ml, n = 3, read-out: Ratio of suppression of T cell proliferation) came out at 0%. Moreover, the inhibition at 0.75 µg/mL in the assay with mouse T cells (Mus musculus, T-cell, 48 h, 0.75 μg/ml, n = 3, read-out: Ratio of suppression of T cell proliferation) stood at 18%. Besides, in the assay with mouse T cells (Mus musculus, T-cell, 48 h, 1.0 μg/ml, n = 3, read-out: Ratio of suppression of T cell proliferation), the inhibition at 1 µg/mL is 1%. Moreover, the inhibition at 2.5 µg/mL in the assay with mouse T cells (Mus musculus, T-cell, 48 h, 2.5 μg/ml, n = 3, read-out: Ratio of suppression of T cell proliferation) stood at 33%. In the assay with mouse T cells (Mus musculus, T-cell, 48 h, 5.0 μg/ml, n = 3, read-out: Ratio of suppression of T cell proliferation), the inhibition at 5 µg/mL was 94%. In addition, the inhibition at 7.5 µg/mL with mouse T cells (Mus musculus, T-cell, 48 h, 7.5 μg/ml, n = 3, read-out: Ratio of suppression of T cell proliferation) was found to be 100%. In addition, in the assay with mouse T cells (Mus musculus, T-cell, 48 h, 10.0 μg/ml, n = 3, read-out: Ratio of suppression of T cell proliferation), the inhibition at 10 µg/mL was 100%. In addition, the inhibition at 12.5 µg/mL in the assay with mouse T cells (Mus musculus, T-cell, 48 h, 12.5 μg/ml, n = 3, read-out: Ratio of suppression of T cell proliferation) was 100%. The inhibition at 15 µg/mL in the assay on mouse T cells (Mus musculus, T-cell, 48 h, 15.0 μg/ml, n = 3, read-out: Ratio of suppression of T cell proliferation) came to 100%. Further, in the assay with mouse T cells (Mus musculus, T-cell, 48 h, 17.5 μg/ml, n = 3, read-out: Ratio of suppression of T cell proliferation), the inhibition at 17.5 µg/mL was 100%. For the same compound, in the assay on mouse T cells (Mus musculus, T-cell, 48 h, 20.0 μg/ml, n = 3, read-out: Ratio of suppression of T cell proliferation), the inhibition at 20 µg/mL was determined as 100%. The figures for the “MVD Antagonism to DPDPE, DR” value at δ-receptor ((20 nM)) and on δ-receptor ((50 nM)) were 5.17 and 9.62, respectively. Also, the antagonist dissociation constant (Kb) on δ-receptor (MVD Antagonism to DPDPE, pA2, (20 nM)) was 5.01 nM; on δ-receptor (MVD Antagonism to DPDPE, pA2, (50 nM)), 6.03 nM. Besides, the “effect on inhibition of contraction by DPDPE, in words” value on δ-receptor (Mouse Vas Deferens) is given as “selectively attenuate the inhibition of contraction by DPDPE”.
